Patent publication US6492357B1, “Compositions and methods for controlling insects which damage rice and other crops” (Aventis CropScience, S.A., priority 1999, dated 2002)

Assays:
Assay type in all cases: in vivo
[1] = tested on: Cnaphalocrocis medinalis (rice leaf rollers); assay: Activity against Cnaphalocrocis medinalis (rice leaf rollers); conditions: compound by itself
[2] = tested on: Nephotettix cincticeps (green leaf hopper); assay: Activity against Nephotettix cincticeps (green leaf hopper), % mortality; conditions: for activity against Nephotettix cincticeps (green leaf hoppers), in words: compound by itself
Description: In experiments on activity against Nephotettix spp. (rice leaf hoppers), for example, Nephotettix cincticeps (green leaf hopper), carried out on representative compounds of the first preferred embodiment, the following results (wherein ppm indicates the concentration of the compound in parts per million of the test solution applied) have been obtained, as shown in Table 7: […]

[3] = tested on: Nilaparvata lugens (brown planthoppers); assay: Activity against Nilaparvata lugens (brown planthoppers); conditions: compound by itself

Row | SMILES | activity against Cnaphalocrocis medinalis (rice leaf rollers), in words [1] | activity against Nephotettix cincticeps (green leaf hoppers), in words [2] | activity against Nilaparvata lugens (brown planthoppers), in words [3] | activity against Cnaphalocrocis medinalis (rice leaf rollers), in words ([1]; listed as indoxacarb) | mortality at 6.25 ppm ([2]; Nephotettix cincticeps, Indoxacarb 6.25 ppm alone (Ethiprole 0 ppm)) | mortality at 12.5 ppm ([2]; Nephotettix cincticeps, Indoxacarb 12.5 ppm alone (Ethiprole 0 ppm)) | mortality at 25 ppm ([2]; Nephotettix cincticeps, Indoxacarb 25 ppm alone (Ethiprole 0 ppm)) | activity against Nephotettix cincticeps (green leaf hoppers), in words ([2]; listed as indoxacarb) | activity against Nilaparvata lugens (brown planthoppers), in words ([3]; listed as indoxacarb)
1 | CC[S+]([O-])c1c(C#N)nn(-c2c(Cl)cc(C(F)(F)F)cc2Cl)c1N (stereo not drawn) [Ethiprole, ethiprole] | not particularly active | some activity by itself | shows activity | – | – | – | – | – | –
2 | COC(=O)N(C(=O)N1COC2(C(=O)OC)Cc3cc(Cl)ccc3C2=N1)c1ccc(OC(F)(F)F)cc1 (stereo not drawn) [Indoxacarb, indoxacarb] | very active | some activity by itself | not particularly active | active | 0% | 16.2% | 38% | active | not particularly effective
